Assay results reported in PMC13510729, “Multiheme selenoenzyme essential for elemental sulfur respiration” (Science Advances, 2026).

System: T1, MccSep
T1 construct: selenoprotein read through an in-frame UGA (Sec325) joining gsu2937 and gsu2936, databases may hold it as two ORFs; C-terminal Factor Xa site and Strep-tag; expressed in G. sulfurreducens PCA delta-mccsep; five heme c per subunit; about 49 kDa; homotetramer of 200 kDa
Assay: spectrophotometric oxidation of reduced methyl viologen at […] nm, allosteric sigmoidal fit
Format: biochemical, Geobacter sulfurreducens
Details: reduced methyl viologen (0.3 mM) with 0.075 mM dithionite, 2 mM CaCl2, 50 mM Bicine-NaOH pH 8.5, 30 °C, anaerobic; Hill coefficient 1.5 ± 0.1; read-out: apparent K0.5

Question: How did the Km turn out when `O=[Se](O)O` [selenite] was run?
Answer: Its Km is 990 ± 40 µM.
